The source of these data is US20220133702A1, “CYSTIC FIBROSIS TRANSMEMBRANE CONDUCTANCE REGULATOR MODULATORS FOR TREATING AUTOSOMAL DOMINANT POLYCYSTIC KIDNEY DISEASE” (The Johns Hopkins University, priority 2020, published 2022).

In series [1] the test system is Pkd1^fl/fl; Pax8^rtTA; TetO-cre mice. Briefly: Cyst growth and renal function in doxycycline-induced Pkd1 knockout mice. The series is classed as in vivo, mouse. As for the experimental part:
(FIG. 1A) Representative images of postnatal day (PND) 21 kidney sections from DMSO- and VX-809-treated mice. Significant reductions occurred in (FIG. 1B) cyst index, (FIG. 1C) kidney weight, and (FIG. 1D) kidney-to-body weight ratio. […] Methods: The total kidney area and total cystic area were measured with ImageJ (provided by NIH). Cystic index=100 X (total cystic area/total kidney area) and is expressed as a percentage. Columns represent means±standard error (SEM) for DMSO (vehicle)-treated (n=4-5) and VX-809 mice. *P<0.05; **P<0.01 (for all graphs). Statistical analysis was performed using an unpaired two-tailed Student's t-test;
When treated with doxycycline, these mice express Cre, causing knockout of PC1. […] Kidney weight (FIG. 1C) and kidney-to-body weight ratios (FIG. 1D) were also lower than those of the control mice. There was no difference in overall body weight (FIG. 1E) between the treated and untreated groups. […] The dosage of VX-809 injected was lower than the human pediatric dose, which is 500 mg of Lumacaftor per day; the adult dose is 800 mg/day.
Mouse strain and treatment. Pkd1^fl/fl; Pax8^rtTA; TetO-cre mice on a C57BL/6 background (61) were provided by the Baltimore PKD Center. Mice of both sexes were used in this study. Mice were injected IP with doxycycline (Sigma, #D9891) (4 μg of doxycycline/g body weight) on postnatal day 11 (PND11), PND12, and PND13 to produce very rapid and aggressive cyst growth. On PND21, the mice were euthanized.
To determine the location of PC2 in the cilia, confocal microscopy experiments using the Pkd1^fl/fl; Pax8^rtTA TetO-cre mouse model were conducted. These mice, when injected intraperitoneally (IP) with doxycycline on postnatal days (PND) 11, 12, and 13, developed multiple large cysts and large polycystic kidneys at approximately 3 weeks of age.

The subject of series [2] is intracellular Ca^2+ in PN cells. Briefly: Fura-2 Ca2+ imaging assay. The series is classed as cell-based, mouse. The note with it: 10 μM, 16 h. As for the experimental part: FIG. 5A, FIG. 5B, FIG. 5C, FIG. 5D, FIG. 5E, and FIG. 5F show intracellular Ca^2+ (F340/F380) levels obtained by ratiometric Fura-2 AM analysis of PN cells treated with VX-809 (10 μM) for 16 h. (FIG. 5A) Representative traces of intracellular Ca^2+ release in response to ATP (100 μM) in PN cells and cells treated with VX-809 (10 μM). (FIG. 5B, FIG. 5C) Graphs summarizing resting calcium levels (FIG. 5B) and the average amplitude of Ca^2+ release (FIG. 5C) in response to ATP. (FIG. 5D) Representative traces of ER Ca^2+ release in response to thapsigargin (4 μM) in PN cells treated with VX-809. (FIG. 5E, FIG. 5F) Resting calcium levels (FIG. 5E) and the average amplitude of Ca^2+ release (FIG. 5F) in response to thapsigargin. Amplitude was measured as the […] of the signal base to peak Δf/f. Significance between the two groups was analyzed using Student's t-test, n=4-5). *P<0.05, ***P<0.001.
Ca^2+-dependent signal transduction is associated with cyst formation. […] To address the effect of VX-809 on this Ca^2+ release, the cells were treated with thapsigargin, a specific inhibitor of the ER Ca^2+-ATPase which, when applied, allows Ca^2+ to leak out of the ER through independent Ca^2+-permeable pathways. A small effect of VX-809 on resting Ca^2+ was observed.
Fura-2 Ca^2+ imaging assay. On Day 5 of cell culture, the cells were loaded with the cell-permeant acetoxymethyl (AM) ester of the calcium indicator fura-2 (fura-2/AM) at 37° C. for 90 min. Measurements were made on a Zeiss inverted microscope equipped with a Sutter Lambda 10-2 controller and filter wheel assembly. For ATP stimulation experiments, the cells were exposed to 100 μM ATP diluted in the imaging buffer. A Zeiss FluorArc mercury lamp was used to excite the cells at 340 and 380 nm, and the emission response was measured at 510 nm Cell fluorescence was measured in response to excitation for 1000 ms at 340 nm and 200 ms at 380 nm once every 4 s. Image acquisition, image analysis, and filter wheel control were performed with IPLab software.

A further series relates to GADD153. The series is described as follows: GADD153 immunostaining of kidney sections. The format is in vivo. The settings on record: PN21 mouse kidney sections, vs DMSO. An excerpt: FIG. 12A, FIG. 12B, and FIG. 12C show GADD153 expression in kidneys of Pkd1fllfl; Pax8^rtTA; TetO-cre mice. Immunofluorescence images representing the GADD expression (green) in DMSO (FIG. 12A) or VX-809 (FIG. 12B) treated PN21 Pkd1^fl/fl mouse. Columns (FIG. 12C) represent % area of GADD immunopositive (green) cells in DMSO or VX-809 treated PN21 Pkd1^fl/fl mouse kidney sections. Data are expressed as mean±1 SEM of DMSO (vehicle)-treated (n=4) and VX-809-treated (n=4) mice. Statistical analysis was performed using a 2-tailed Student t-test. DMSO, dimethyl sulfoxide. Kidneys were fixed in 4% paraformaldehyde as described (62). Used here was the GADD153 antibody (Sc-7351), goat antirabbit (A21429, AlexaFluor 555, 1:1,000; Life Technologies, Carlsbad, Calif.) and DAPI (H-1200; Vector Laboratories, Burlingame, Calif.). Pictures were acquired with a Zeiss microscope equipped a 20× objective. Cells positive for GADD153 and the total number of cells were measured with ImageJ. The results are expressed as percentages;
Given that VX-809 alters an ensemble of Hsps, it was evaluated whether VX-809 alters proteins associated with ER stress. To address this question, the levels of three ER stress-associated proteins were measured, 78-kDa glucose-regulated protein (GRP78), ER oxidoreductin 1 (Ero1) and DNA damage-inducible protein 3 (GADD153), also known as C/EBP homologous protein (CHOP) (37). […]

[3] abbreviates: 30 mg/kg IP daily PND10 to PND20, vs DMSO-treated mice.
The mark [4] stands for this setting: 30 mg/kg IP daily PND10 to PND20, vs control mice.
Setting [5] is: injected daily PND10 to PND20, vs DMSO-treated mice.

As to `Cc1ccc(NC(=O)C2(c3ccc4c(c3)OC(F)(F)O4)CC2)nc1-c1cccc(C(=O)O)c1` [VX-809, lumacaftor], in series [1] (30 mg/kg IP daily PND10 to PND20, treated vs untreated), the overall body weight result is “no difference”. In addition, in series [1] (setting [3]), the “blood urea nitrogen (BUN)” value was “lowered”, the creatinine result is “lowered” and the “cyst growth (cyst index)” value is reported as −60.4%. Moreover, in series [1] (setting [4]), the Kidney weight entry was “lower” and the kidney-to-body weight ratios entry was “lower”. For the same compound, in series [1] (setting [5]), the “cyst growth (in words)” value is listed as “significantly less cyst growth” and the renal function entry was “improved renal function”. The “intracellular Ca^2+ movement in response to ATP” value in series [2] (ATP 100 μM) is “no effect”. Besides, the “resting Ca^2+” value in series [2] (ATP experiment) is listed as “small reduction”. For the same compound, the “thapsigargin-induced release of Ca^2+ from the ER” value in series [2] (thapsigargin 4 μM) was “dramatically reduced”. The “resting Ca^2+” value in series [2] (thapsigargin experiment) is recorded as “small effect”. The GADD153 immunostaining entry with GADD153 is listed as “strong reduction”.
